Assays:
barnyard grass = experiment: Test Example 5: herbicidal effect by foliage application, plastic box (Table 20, symbol H); assay type: in vivo, barnyard grass (Echinochloa crus-galli); conditions: foliage application, 320 g/ha; for herbicidal effect grade, H: barnyard grass: three weeks after application
Method in brief: (§1)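 Plants were sown into sterilized diluvial soil under about 1.5 cm cover and kept in a greenhouse at 25° C. to 30° C. Fourteen days on, foliage received an even spray of the diluted emulsion. Herbicidal or crop effect was judged three weeks afterwards.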

oval-leafed pondweed [1] = experiment: Test Example 1: herbicidal activity, application before weed generation under submerged conditions (Table 16, symbol C); assay type: in vivo, oval-leafed pondweed (Monochoria vaginalis); conditions: 320 g/ha applied herbicide
Method in brief: (§2)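 Alluvial soil was flooded to 4 cm depth, weed seeds were sown mixed and 2.5-leaf rice seedlings were transplanted. On sowing day, the compound's emulsion, diluted in water to a set dose, was applied to the water surface. Plants grew at 25–30 °C and were scored 0–5 after three weeks.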

blackgrass = experiment: Test Example 4: herbicidal effect by soil treatment (Table 19, symbol J); assay type: in vivo, blackgrass (Alopecurus myosuroides)
Method in brief: (§3)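 In this soil treatment, the formulated compound reached the seeds only through the soil: seeds were buried about 1.5 cm deep in sterilized diluvial soil, then the diluted emulsion was sprayed over the surface. After three weeks at 25° C. to 30° C. in a greenhouse, effects were graded on criteria from an earlier test.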

persian speedwell = experiment: Test Example 4: herbicidal effect by soil treatment (Table 19, symbol R); assay type: in vivo, Persian speedwell (Veronica persica)
Method in brief: as §3

southern crabgrass = experiment: Test Example 5: herbicidal effect by foliage application, plastic box (Table 20, symbol F); assay type: in vivo, southern crabgrass (Digitaria ciliaris); conditions: foliage application, 320 g/ha; for herbicidal effect grade, F: southern crabgrass: three weeks after application
Method in brief: as §1

false cleavers [2] = experiment: Test Example 4: herbicidal effect by soil treatment (Table 19, symbol Q); assay type: in vivo, false cleavers (Galium spurium)
Method in brief: as §3

Japanese bulrush = experiment: Test Example 1: herbicidal activity, application before weed generation under submerged conditions (Table 16, symbol B); assay type: in vivo, Japanese bulrush (Schoenoplectus juncoides); conditions: 320 g/ha applied herbicide
Method in brief: as §2

false cleavers [3] = experiment: Test Example 5: herbicidal effect by foliage application, plastic box (Table 20, symbol Q); assay type: in vivo, false cleavers (Galium spurium); conditions: foliage application, 320 g/ha; for herbicidal effect grade, Q: false cleavers: three weeks after application
Method in brief: as §1

lambsquarters = experiment: Test Example 5: herbicidal effect by foliage application, plastic box (Table 20, symbol O); assay type: in vivo, lambsquarters (Chenopodium album); conditions: foliage application, 320 g/ha; for herbicidal effect grade, O: lambsquarters: three weeks after application
Method in brief: as §1

Chinese sprangletop = experiment: Test Example 3: herbicidal effect by foliage application, Wagner pot (Table 18, symbol D); assay type: in vivo, chinese sprangletop (Leptochloa chinensis); conditions: 320 g/ha
Method in brief: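 Plants were sown in alluvial soil held under 0.1–0.5 cm standing water and grown 14 days in a greenhouse at 25–30 °C. An emulsifiable formulation, water-diluted to the set dose, was then sprayed onto the foliage, and effects were scored three weeks later using previously defined criteria.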

windgrass = experiment: Test Example 4: herbicidal effect by soil treatment (Table 19, symbol L); assay type: in vivo, windgrass (Apera spica-venti)
Method in brief: as §3

late watergrass = experiment: Test Example 1: herbicidal activity, application before weed generation under submerged conditions (Table 16, symbol A); assay type: in vivo, late watergrass (Echinochloa oryzicola); conditions: 320 g/ha applied herbicide
Method in brief: as §2

oval-leafed pondweed [4] = experiment: Test Example 2: herbicidal activity, application during weed generation under submerged conditions (Table 17, symbol C); assay type: in vivo, oval-leafed pondweed (Monochoria vaginalis); conditions: AAH 320 g/ha; application during weed generation, submerged conditions
Method in brief: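 Effect on each weed is rated three weeks post-treatment, using the same scoring criteria as the preceding test. Plants grow from mixed-sown seed in flooded alluvial soil (4 cm water) at 25° C. to 30° C., and are treated at one to two leaves with diluted emulsion dropped onto the water.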

[5] = amount of applied herbicide 320 g/ha
[6] = evaluated three weeks after application

Compound | herbicidal effect grade, H: barnyard grass (barnyard grass) | Herbicidal effect on C: oval-leafed pondweed (grade 0-5) (oval-leafed pondweed [1]) | herbicidal effect rating, J: blackgrass (blackgrass; [5]) | herbicidal effect rating, R: persian speedwell (persian speedwell; [5]) | herbicidal effect grade, F: southern crabgrass (southern crabgrass) | herbicidal effect rating, Q: false cleavers (false cleavers [2]; [5]) | Herbicidal effect on B: Japanese bulrush (grade 0-5) (Japanese bulrush) | herbicidal effect grade, Q: false cleavers (false cleavers [3]) | herbicidal effect grade, O: lambsquarters (lambsquarters) | herbicidal effect on D (Chinese sprangletop), rating 0-5 (Chinese sprangletop) | herbicidal effect rating, L: windgrass (windgrass; [5]) | Herbicidal effect on A: late watergrass (grade 0-5) (late watergrass) | herbicidal effect rating, C: oval-leafed pondweed (oval-leafed pondweed [4]) | further results
CCCOc1ccc(-c2sc3ccccc3c2-c2c(O)c(C)nn(C)c2=O)cc1 [1-019] | 5 (Herbicidal rate of 90% or more (almost completely withered)) | 4 (Herbicidal rate of 70% or more and less than 90%) | 0 (Herbicidal rate of 5% or less (almost no effect)) | 5 (Herbicidal rate of 90% or more (almost completely withered)) | 4 (Herbicidal rate of 70% or more and less than 90%) | 0 (Herbicidal rate of 5% or less (almost no effect)) | 5 (Herbicidal rate of 90% or more (almost completely withered)) | 3 (Herbicidal rate of 40% or more and less than 70%) | 5 (Herbicidal rate of 90% or more (almost completely withered)) | 4 (Herbicidal rate of 70% or more and less than 90%) | 0 (Herbicidal rate of 5% or less (almost no effect)) | 5 (Herbicidal rate of 90% or more (almost completely withered)) | – | –
CCCCOc1ccc(-c2sc3ccccc3c2-c2c(O)c(C)nn(C)c2=O)cc1 [1-024] | 5 (Herbicidal rate of 90% or more (almost completely withered)) | 5 (Herbicidal rate of 90% or more (almost completely withered)) | 0 (Herbicidal rate of 5% or less (almost no effect)) | 4 (Herbicidal rate of 70% or more and less than 90%) | 5 (Herbicidal rate of 90% or more (almost completely withered)) | 0 (Herbicidal rate of 5% or less (almost no effect)) | 5 (Herbicidal rate of 90% or more (almost completely withered)) | 4 (Herbicidal rate of 70% or more and less than 90%) | 5 (Herbicidal rate of 90% or more (almost completely withered)) | 4 (Herbicidal rate of 70% or more and less than 90%) | 0 (Herbicidal rate of 5% or less (almost no effect)) | 5 (Herbicidal rate of 90% or more (almost completely withered)) | 5 (Herbicidal rate of 90% or more (almost completely withered)) | –
CCCCOc1ccc(-c2sc3ccccc3c2-c2c(OC(=O)CCC)c(C)nn(C)c2=O)cc1 [1-025] | 4 (Herbicidal rate of 70% or more and less than 90%) | 4 (Herbicidal rate of 70% or more and less than 90%) | 0 (Herbicidal rate of 5% or less (almost no effect)) | 3 (Herbicidal rate of 40% or more and less than 70%) | 3 (Herbicidal rate of 40% or more and less than 70%) | 0 (Herbicidal rate of 5% or less (almost no effect)) | 5 (Herbicidal rate of 90% or more (almost completely withered)) | 3 (Herbicidal rate of 40% or more and less than 70%) | 4 (Herbicidal rate of 70% or more and less than 90%) | 4 (Herbicidal rate of 70% or more and less than 90%) | 0 (Herbicidal rate of 5% or less (almost no effect)) | 3 (Herbicidal rate of 40% or more and less than 70%) | 3 (Herbicidal rate of 40% or more and less than 70%) | –
CCCC(=O)Oc1c(C)nn(C)c(=O)c1-c1c(-c2ccc(OC)cc2)sc2ccc(F)cc12 [2-027] | – | 4 (Herbicidal rate of 70% or more and less than 90%) | – | – | – | – | 5 (Herbicidal rate of 90% or more (almost completely withered)) | – | – | 4 (Herbicidal rate of 70% or more and less than 90%) | – | 4 (Herbicidal rate of 70% or more and less than 90%) | 5 (Herbicidal rate of 90% or more (almost completely withered)) | effect on barnyard grass (H) (barnyard grass; 3 weeks after application): 5 (Herbicidal rate of 90% or more (almost completely withered)); herbicidal effect rating, J: blackgrass (blackgrass; 320 g/ha): 0 (Herbicidal rate of 5% or less (almost no effect)); herbicidal effect rating, R: persian speedwell (persian speedwell; 320 g/ha): 5 (Herbicidal rate of 90% or more (almost completely withered)); effect on southern crabgrass (F) (southern crabgrass; 3 weeks after application): 4 (Herbicidal rate of 70% or more and less than 90%); herbicidal effect rating, Q: false cleavers (false cleavers [2]; 320 g/ha): 0 (Herbicidal rate of 5% or less (almost no effect)); effect on false cleavers (Q) (false cleavers [3]; 3 weeks after application): 0 (Herbicidal rate of 5% or less (almost no effect)); effect on lambsquarters (O) (lambsquarters; 3 weeks after application): 5 (Herbicidal rate of 90% or more (almost completely withered)); herbicidal effect rating, L: windgrass (windgrass; 320 g/ha): 0 (Herbicidal rate of 5% or less (almost no effect))
COc1ccccc1-c1sc2ccc(Cl)cc2c1-c1c(O)c(C)nn(C)c1=O [2-101] | – | 3 (Herbicidal rate of 40% or more and less than 70%) | – | – | – | – | 3 (Herbicidal rate of 40% or more and less than 70%) | – | – | 0 (Herbicidal rate of 5% or less (almost no effect)) | – | 0 (Herbicidal rate of 5% or less (almost no effect)) | 5 (Herbicidal rate of 90% or more (almost completely withered)) | herbicidal effect on H: barnyard grass (barnyard grass; [6]): 3 (Herbicidal rate of 40% or more and less than 70%); J: blackgrass, herbicidal effect rating (blackgrass; [5]): 1 (Herbicidal rate of 5% or more and less than 20%); R: persian speedwell, herbicidal effect rating (persian speedwell; [5]): 4 (Herbicidal rate of 70% or more and less than 90%); herbicidal effect on F: southern crabgrass (southern crabgrass; [6]): 2 (Herbicidal rate of 20% or more and less than 40%); Q: false cleavers, herbicidal effect rating (false cleavers [2]; [5]): 5 (Herbicidal rate of 90% or more (almost completely withered)); herbicidal effect on Q: false cleavers (false cleavers [3]; [6]): 5 (Herbicidal rate of 90% or more (almost completely withered)); herbicidal effect on O: lambsquarters (lambsquarters; [6]): 5 (Herbicidal rate of 90% or more (almost completely withered)); L: windgrass, herbicidal effect rating (windgrass; [5]): 0 (Herbicidal rate of 5% or less (almost no effect))
